Structures can show the parent of a compound that is named as a salt.
Legend:
Assay type in all cases: in vivo, Balb/c mice
[1] = system: macrophages and neutrophils in mesenteric lymph nodes and spleen of DSS-induced colitis mice; assay: Inflammatory cell detection by flow cytometry in mesenteric lymph nodes and spleen; conditions: 10 mg/kg intragastric, FIG. 3A and 3B
Method: FIG. 3 is graphs showing the results of flow cytometry analysis, in which a single cell suspension was prepared from mesenteric lymph nodes and spleen of mice in various groups taken out at the end of the experiment, and the cells were labeled with the corresponding fluorescent antibody. FIG. 3A is for the isolated mesenteric lymph node cells, and FIG. 3B is for the isolated spleen lymphocytes, they were stained withanti-F4/80 antibody+anti-CD11b antibody (double positive cells were recognized as macrophages), and with anti-Gr-1 antibody+anti-CD11 b antibody (double positive cells were identified as neutrophils) respectively.
(§1) 1. Mice were randomly divided into a normal control group, a model group, a cyclosporin A (CsA) (20 mg/kg) treatment group, a 5-aminosalicylic acid (5-ASA) (50 mg/kg) treatment group, and the artemisinin derivative having anti-inflammatory immunosuppressive activity SM934, SM905, SM933 and SM735 (10 mg/kg each) treatment groups, with 8 mice per group. Except for the mice in the normal control group, for the mice in the other groups including the model group, the cyclosporine A treatment group, the 5-aminosalicylic acid treatment group, and the 4 artemisinin derivative treatment groups, 5% DSS was added to the drinking water for 7 consecutive days for induction of the intestinal inflammation model.
2. […]

[2] = system: CD11b+ monocytes in colon tissue of DSS-induced colitis mice; assay: Inflammatory cell detection in colon cryosections by fluorescence confocal microscopy; conditions: middle segment of colon, 10 mg/kg intragastric, FIG. 4
Method: FIG. 4 is photographs showing the photographing and analyzing results under fluorescence confocal microscopy in which, after the middle segments of colons of mice in various groups were cryosectioned, the nucleus were stained with DAPI fluorescent antibody, and the mononuclear lymphocytes were stained with anti-CD11b antibody.
as §1
2. […]
2. The middle segment of the colon was cryosectioned, stained with the corresponding fluorescent antibody, photographed under a fluorescence confocal microscope and analyzed.

[3] = system: pro-inflammatory cytokines in colon tissue of DSS-induced colitis mice; assay: Detection of pro-inflammatory cytokine levels in colon tissue by ELISA; conditions: colon homogenate, per unit of total protein, 10 mg/kg intragastric, FIG. 5
Method: as §1
2. From the start of the induction to the end of the experiment, mice in the various treatment groups were given cyclosporine A, 5-aminosalicylic acid 5-ASA or4 artemisinin derivatives (10 mg/kg) respectively by intragastric administration to conduct a therapeutic intervention.
[IV] Detection of Pro-Inflammatory Cytokine Levels in Colon Tissue
1. […] After centrifugation, the protein concentration in the homogenate supernatant was quantified with a BCA kit.
2. ELISA was used to detect the content of pro-inflammatory cytokine in the supernatant, which was expressed as the content of cytokine per unit of total protein.

C[C@@H]1CCC2[C@@H](C)[C@@H](OCCN)O[C@H]3O[C@@]4(C)CCC1[C@@]23OO4 (stereo partly drawn) [SM934, β-aminoarteether maleate]
reduced: proportion of macrophages (F4/80+ and CD11b+ double positive cells) [1] | proportion of neutrophils (Gr-1+ and CD11b+ double positive cells) [1] | infiltration of monocytes (CD11b+ cells) in colon tissue [2] | levels of pro-inflammatory cytokines in colon tissue [3]

Reference: patent US20200030284A1, “MEDICAL USE OF ARTEMISININ DERIVATIVE FOR TREATING INFLAMMATORY BOWEL DISEASE” (SHANGHAI INSTITUTE OF MATERIA MEDICA,CHINESE ACADEMY OF …, priority 2017, published 2020)
